{
  "source": "patent US20240269113A1",
  "about": "“3-(2-(DIMETHYLAMINO)ETHYL)-1H-INDOL-4-yl DERIVATIVES” (priority 2023, published 2024)",
  "data": [
    {"units": {"Human Hepatocytes Maximum % Psilocin": "%"}, "description": "Psilocin was also run as an additional control to monitor psilocin formation in a semi-quantitative manner.\nSamples were analysed by UHPLC-MS/MS—Waters™ Acquity UPLC system, Waters™ Xevo TQ-XS on a Waters™ Acquity UPLC® HSS T3 column (1.8 μm, 2.1 mm×30 mm), mobile phases were water+0.1% formic acid and methanol+0.1% formic acid.\nIn addition, the appearance of psilocin from test compounds was monitored and assessed (as a percentage) against control psilocin peaks (at Time 0) to provide a semi-quantitative measure of psilocin release.", "values": [
      {"molecule": "CC(=O)Oc1ccccc1C(=O)Oc1cccc2[nH]cc(CCN(C)C)c12", "note": "[Compound 99, 3-(2-(dimethylamino)ethyl)-1H-indol4-yl 2-acetoxybenzoate]", "Human Hepatocytes Maximum % Psilocin": 100}
    ]},
    {"assay_type": "in vitro ADME", "remark": "another data set of the same source", "protocol": "The elimination rate constant and half-life (t1/2) were determined using Ln(MS response) vs time plots. […] The human plasma stability data are included in table A.", "units": {"Human Plasma Maximum % Psilocin": "%"}, "values": [
      {"molecule": "CC(=O)N(C)CCOC(=O)Oc1cccc2[nH]cc(CCN(C)C)c12", "note": "[Compound 87, 3-(2-(dimethylamino)ethyl)-1H-indol-4-yl (2-(N-methylacetamido)ethyl) carbonate]", "Human Plasma Maximum % Psilocin": 91},
      {"molecule": "CC(=O)Oc1ccccc1C(=O)Oc1cccc2[nH]cc(CCN(C)C)c12", "note": "[Compound 99, 3-(2-(dimethylamino)ethyl)-1H-indol4-yl 2-acetoxybenzoate]", "Human Plasma Maximum % Psilocin": 100},
      {"molecule": "CN(C)CCc1c[nH]c2cccc(OC(=O)Cc3ccccc3)c12", "note": "[Compound 176, 3-(2-(dimethylamino)ethyl)-1H-indol-4-yl 2-phenylacetate]", "Human Plasma Maximum % Psilocin": 100},
      {"molecule": "CN(C)CCc1c[nH]c2cccc(OC(=O)CCCc3ccccc3)c12", "note": "[Compound 96, 3-(2-(dimethylamino)ethyl)-1H-indol-4-yl 4-phenylbutanoate]", "Human Plasma Maximum % Psilocin": 75},
      {"molecule": "CN(C)CCc1c[nH]c2cccc(OC(=O)c3cccnc3)c12", "note": "[Compound 91, 3-(2-(dimethylamino)ethyl)-1H-indol-4-yl nicotinate]", "Human Plasma Maximum % Psilocin": 100}
    ]}
  ]
}
